Measurements reported in patent US5643954A, “Method of preventing and alleviating stress in a healthy mammal in need thereof” (priority 1993, dated 1997).
Like-named read-outs stand apart in the source and are kept apart here.

Tests used:
[1] = test system: chronic emotional stress; conditions: 1 mg/kg tongue root; for 15% ethanol daily consumed: M ± m
Excerpt: It is commonly known that manipulations with animals (cell sampling, administration of substances, water included) are a unique stress factor and cause a prolonged state of excitement, disturbance, aggressiveness.

[2] = test system: hexenal sleep; assay: comparative interaction test with hexenal, rats; type: in vivo; conditions: M ± m
[3] = type: in vivo; conditions: in vivo
[4] = test system: acute stress action (electric painful influence)
Excerpt: The test and control young rats were subjected to a single electric painful influence in a matter of a second ("electric floor" 59 hertz, 35 v). […] Sixty minutes after, the behaviour of animals was investigated in the "open field" test.

[5] = test system: electric painful irritation; conditions: 60 min before experiment
[6] = test system: hexenal effects; conditions: M ± m
[7] = test system: apomorphine stereotypy; conditions: M ± m
[8] = test system: arecoline hyperkinesia; conditions: M ± m
[9] = test system: Corazol twitch paroxysm; conditions: for Threshold doses Corazol 1% solution, death of animal / Threshold doses Corazol 1% solution, start of twitch: M ± m
[10] = test system: strychnine effects; conditions: for Threshold doses Strychnine 0,01% solution, death of animal / Threshold doses Strychnine 0,01% solution, start of twitch: M ± m
[11] = test system: electrical-shock-caused paroxysms
[12] = not given; remark: listed apart in the source
[13] = test system: EEG; conditions: for Biopotential slow form amplitude / Expression of biopotential slow forms / Expression of pathologically acute waves and peaked oscillation / Expression of α-rhythm / Paroxysmal bursts / α-frequency / α-oscillation amplitude / β-rhythm amplitude / β-rhythm expression / β-rhythm, low-frequency expression: M
[14] = test system: EEG; conditions: M
[15] = 40 mg/kg week-long introduction
[16] = 200 mg/kg single administration
[17] = after the exams, after taking, M ± m
[18] = lab conditions, after taking, after testing, M ± m
[19] = taken 30 minutes before an exam

For aminoacetic acid [claimed preparation], the alcohol motivation [1] was “considerably reduces it”, the “15% ethanol daily consumed” value ([1]; 1 week) was 3.6 ± 0.3 mL and the “15% ethanol daily consumed” value ([1]; 2 week) was 4.0 ± 0.3 mL. The “15% ethanol daily consumed” value ([1]; 3 week) was 2.3 ± 0.3 mL, the “15% ethanol daily consumed” value ([1]; 4 week) was 2.7 ± 0.2 mL and the Hexanal sleep duration ([2]; 2 mg/kg) was 36.0 ± 1.8 min. The Hexanal sleep duration ([2]; 40 mg/kg) was 32.0 ± 1.9 min, the Hexanal sleep duration ([2]; 200 mg/kg) was 28.0 ± 1.9 min and the “sedative and synchronizing effect on EEG” value [3] was “displaying at the same time a sedative and synchronizing effect on EEG”. For the same substance, the “Intersection of a floor's center” value ([4]; 2 mg/kg on tongue root 20 min before electric painful influence) was 0, the Defecation ([4]; 2 mg/kg on tongue root 20 min before electric painful influence, M ± m) was 0.4 ± 0.28 and the stress-protective effect ([4]; preliminarily administered) was “displays a stress-protective effect and considerably reduces on-stress-dependent excitement manifestations”. For the same substance, the “emotional reaction (squeak)” value [5] was “did not exert influence on an emotional reaction”, the “increase of aggression reaction threshold” value [5] was 5±0.8 v and the number of fights [5] was “reduced the number of fights”. The “strengthening of motor component (jumps)” value [5] was 1-1.5 points, the “hexenal duration of sleep” value ([6]; 2 mg/kg) was 36.0 ± 1.8 min and the hexenal latent period ([6]; 2 mg/kg) was 4.5 ± 0.3 min. For the same substance, the “hexenal duration of sleep” value ([6]; 40 mg/kg) was 32.0 ± 1.9 min, the hexenal latent period ([6]; 40 mg/kg) was 4.5 ± 0.6 min and the “hexenal duration of sleep” value ([6]; 200 mg/kg) was 28.0 ± 1.9 min. For the same substance, the hexenal latent period ([6]; 200 mg/kg) was 3.8 ± 0.7 min, the “apomorphine duration of stereotypy” value ([7]; 2 mg/kg) was 20.0 ± 0.9 min and the apomorphine latent period ([7]; 2 mg/kg) was 98.0 ± 1.5 s. For the same substance, the “apomorphine duration of stereotypy” value ([7]; 40 mg/kg) was 22.0 ± 0.6 min, the apomorphine latent period ([7]; 40 mg/kg) was 104.0 ± 0.9 s and the “apomorphine duration of stereotypy” value ([7]; 200 mg/kg) was 20.0 ± 0.5 min. For the same substance, the apomorphine latent period ([7]; 200 mg/kg) was 95.5 ± 0.8 s, the “Arecoline hyperkinesia, duration” value ([8]; 2 mg/kg) was 16.5 ± 0.4 min and the “Arecoline hyperkinesia, duration” value ([8]; 20 mg/kg) was 14.8 ± 1.2 min. The “Arecoline hyperkinesia, duration” value ([8]; 40 mg/kg) was 13.8 ± 0.9 min, the “Arecoline hyperkinesia, duration” value ([8]; 80 mg/kg) was 14.5 ± 0.9 min and the “Arecoline hyperkinesia, duration” value ([8]; 200 mg/kg) was 15.6 ± 0.8 min. For the same substance, the “Threshold doses Corazol 1% solution, death of animal” value ([9]; 2 mg/kg single administration) was 0.119 ± 0.006 mL, the “Threshold doses Corazol 1% solution, start of twitch” value ([9]; 2 mg/kg single administration) was 0.095 ± 0.004 mL and the “Threshold doses Corazol 1% solution, death of animal” value ([9]; 2 mg/kg week-long introduction) was 0.119 ± 0.004 mL. For the same substance, the “Threshold doses Corazol 1% solution, start of twitch” value ([9]; 2 mg/kg week-long introduction) was 0.090 ± 0.007 mL, the “Threshold doses Corazol 1% solution, death of animal” value ([9]; 40 mg/kg single administration) was 0.130 ± 0.006 mL and the “Threshold doses Corazol 1% solution, start of twitch” value ([9]; 40 mg/kg single administration) was 0.091 ± 0.005 mL. The “Threshold doses Corazol 1% solution, death of animal” value [9, 15] was 0.163 ± 0.005 mL, the “Threshold doses Corazol 1% solution, start of twitch” value [9, 15] was 0.095 ± 0.005 mL and the “Threshold doses Corazol 1% solution, death of animal” value ([9]; 80 mg/kg single administration) was 0.135 ± 0.007 mL. The “Threshold doses Corazol 1% solution, start of twitch” value ([9]; 80 mg/kg single administration) was 0.095 ± 0.004 mL, the “Threshold doses Corazol 1% solution, death of animal” value [9, 16] was 0.130 ± 0.08 mL and the “Threshold doses Corazol 1% solution, start of twitch” value [9, 16] was 0.096 ± 0.007 mL. The Corazol threshold dosage ([9]; in words) was “somewhat increasing a Corazol threshold dosage”, the “Threshold doses Strychnine 0,01% solution, death of animal” value ([10]; 2 mg/kg single administration) was 0.21 ± 0.007 mL and the “Threshold doses Strychnine 0,01% solution, start of twitch” value ([10]; 2 mg/kg single administration) was 0.17 ± 0.008 mL. The “Threshold doses Strychnine 0,01% solution, death of animal” value ([10]; 40 mg/kg single administration) was 0.21 ± 0.005 mL, the “Threshold doses Strychnine 0,01% solution, start of twitch” value ([10]; 40 mg/kg single administration) was 0.18 ± 0.007 mL and the “Threshold doses Strychnine 0,01% solution, death of animal” value ([10]; 80 mg/kg single administration) was 0.18 ± 0.006 mL. The “Threshold doses Strychnine 0,01% solution, start of twitch” value ([10]; 80 mg/kg single administration) was 0.17 ± 0.005 mL, the “Threshold doses Strychnine 0,01% solution, death of animal” value [10, 16] was 0.19 ± 0.006 mL and the “Threshold doses Strychnine 0,01% solution, start of twitch” value [10, 16] was 0.15 ± 0.008 mL. The “influence on strychnine effects” value ([10]; in words) was “does not practically influence said strychnine effects”, the “Maximal electric shock death of animal” value ([11]; 2 mg/kg single administration) was 70% and the “Maximal electric shock tonico-extensor phase” value ([11]; 2 mg/kg single administration) was 100%. For the same substance, the “Maximal electric shock death of animal” value ([11]; 2 mg/kg week-long introduction) was 60%, the “Maximal electric shock tonico-extensor phase” value ([11]; 2 mg/kg week-long introduction) was 100% and the “Maximal electric shock death of animal” value ([11]; 40 mg/kg single administration) was 40%. The “Maximal electric shock tonico-extensor phase” value ([11]; 40 mg/kg single administration) was 100%, the “Maximal electric shock death of animal” value [11, 15] was 40% and the “Maximal electric shock tonico-extensor phase” value [11, 15] was 100%. The “Maximal electric shock death of animal” value ([11]; 80 mg/kg single administration) was 40%, the “Maximal electric shock tonico-extensor phase” value ([11]; 80 mg/kg single administration) was 100% and the “Maximal electric shock death of animal” value [11, 16] was 70%. For the same substance, the “Maximal electric shock tonico-extensor phase” value [11, 16] was 100%, the “activity towards electrical-shock-caused paroxysms” value ([11]; in words) was “inactive towards electrical-shock- caused paroxysms” and the “Arterial pressure, diastolic” value [17] was 65.7 ± 1.5 mm Hg. For the same substance, the “Arterial pressure, systolic” value [17] was 112.8 ± 2.8 mm Hg, the Pulse frequency [17] was 72.8 ± 2.3 spec./min and the “change in pulse rate and arterial pressure” value (heightened nerve-psychic agitation, in words) was “eliminates a change in a pulse rate and arterial pressure”. For the same substance, the “Arterial pressure, diastolic” value (in vivo) was 69.3 ± 1.3 mm Hg, the “Arterial pressure, systolic” value (in vivo) was 110.2 ± 1.7 mm Hg and the Pulse frequency (in vivo) was 76.8 ± 1.4 spec./min. For the same substance, the “Arterial pressure, diastolic” value [18] was 69.2 ± 1.1 mm Hg, the “Arterial pressure, systolic” value [18] was 107.7 ± 1.5 mm Hg and the Pulse frequency [18] was 78.1 ± 1.4 spec./min. The “marks exceeding those of the school year” value [12, 19] was 0.5-1 point, the “students noting disappearance of fear and internal discomfort” value [12, 19] was 95% and the “good and excellent marks 4 and 5” value ([12]; taken before an exam, chiefly in maths) was 80%. For the same substance, the “EEG variation a)” value ([13]; 1,5 hrs after a dose) was 2.89 arbitrary units, the “EEG variation b)” value ([13]; 1,5 hrs after a dose) was 2.79 arbitrary units and the “Biopotential slow form amplitude” value ([13]; 1,5 hrs after a dose) was 41.40 mV. For the same substance, the “Expression of biopotential slow forms” value ([13]; 1,5 hrs after a dose) was 2.85 arbitrary units, the “Expression of pathologically acute waves and peaked oscillation” value ([13]; 1,5 hrs after a dose) was 1.71 arbitrary units and the “Expression of α-rhythm” value ([13]; 1,5 hrs after a dose) was 4.89 arbitrary units. For the same substance, the Paroxysmal bursts ([13]; 1,5 hrs after a dose) was 2.21 arbitrary units, the α-frequency ([13]; 1,5 hrs after a dose) was 10.60 Hertz and the α-oscillation amplitude ([13]; 1,5 hrs after a dose) was 105.70 mV. The β-rhythm amplitude ([13]; 1,5 hrs after a dose) was 13.60 mV, the β-rhythm expression ([13]; 1,5 hrs after a dose) was 2.14 arbitrary units and the “β-rhythm, low-frequency expression” value ([13]; 1,5 hrs after a dose) was 1.21 arbitrary units. The “EEG variation a)” value ([13]; after two-week course) was 3.00 arbitrary units, the “EEG variation b)” value ([13]; after two-week course) was 2.42 arbitrary units and the “Biopotential slow form amplitude” value ([13]; after two-week course) was 44.20 mV. For the same substance, the “Expression of biopotential slow forms” value ([13]; after two-week course) was 3.60 arbitrary units, the “Expression of pathologically acute waves and peaked oscillation” value ([13]; after two-week course) was 1.93 arbitrary units and the “Expression of α-rhythm” value ([13]; after two-week course) was 4.54 arbitrary units. It also gave a Paroxysmal bursts ([13]; after two-week course) of 3.00 arbitrary units, a α-frequency ([13]; after two-week course) of 10.40 Hertz and a α-oscillation amplitude ([13]; after two-week course) of 95.00 mV. The β-rhythm amplitude ([13]; after two-week course) was 16.40 mV, the β-rhythm expression ([13]; after two-week course) was 2.07 arbitrary units and the “β-rhythm, low-frequency expression” value ([13]; after two-week course) was 1.29 arbitrary units. The EEG-based activity ([13]; all examined EEG indicators, in words) was “has nootropic activity”, the “Attention mobilization: reaction expression” value ([14]; 1,5 hrs after a dose) was 2.82 arbitrary units and the “Eye opening-closing reaction: biopotential amplitude decline” value ([14]; 1,5 hrs after a dose) was 25.40 mV. For the same substance, the “Eye opening-closing reaction: response” value ([14]; 1,5 hrs after a dose) was 3.71 arbitrary units, the “HV-reaction (test with hyperventilation): reaction expression” value ([14]; 1,5 hrs after a dose) was 2.07 arbitrary units and the “HV-reaction: after-effect” value ([14]; 1,5 hrs after a dose) was 12.40 s. The “Presence of errors in count” value ([14]; 1,5 hrs after a dose) was 28.60%, the “Repeated response to eye opening-closing: reaction expression” value ([14]; 1,5 hrs after a dose) was 3.73 arbitrary units and the “Sonic signal count: reaction expression” value ([14]; 1,5 hrs after a dose) was 3.64 arbitrary units. The “Sonic signal count: reaction suppression” value ([14]; 1,5 hrs after a dose) was 5.79 sonic signals, the “Attention mobilization: reaction expression” value ([14]; after two-week course) was 3.21 arbitrary units and the “Eye opening-closing reaction: biopotential amplitude decline” value ([14]; after two-week course) was 23.60 mV. For the same substance, the “Eye opening-closing reaction: response” value ([14]; after two-week course) was 3.07 arbitrary units, the “HV-reaction (test with hyperventilation): reaction expression” value ([14]; after two-week course) was 2.64 arbitrary units and the “HV-reaction: after-effect” value ([14]; after two-week course) was 20.70 s. The “Presence of errors in count” value ([14]; after two-week course) was 33.00%, the “Repeated response to eye opening-closing: reaction expression” value ([14]; after two-week course) was 3.00 arbitrary units and the “Sonic signal count: reaction expression” value ([14]; after two-week course) was 3.79 arbitrary units. For the same substance, the “Sonic signal count: reaction suppression” value ([14]; after two-week course) was 6.57 sonic signals.
